“Also recorded” adds a separate entry of the source.
Legend:
HMGCoAR = molecular target: T1, HMGCoAR (Homo sapiens, UniProt P04035); test: In vitro HMGCoAR activity assay (Sigma kit); format: biochemical; details: 10^−5 to 10^−3 M; 37 °C; NADPH oxidation, absorbance at 340 nm, 0 and 10 min; means ± SD
T1 construct: purchased Sigma (Sigma-Aldrich, St. Louis, MO, USA)
T1 sequence (P04035 426-888 limits assumed): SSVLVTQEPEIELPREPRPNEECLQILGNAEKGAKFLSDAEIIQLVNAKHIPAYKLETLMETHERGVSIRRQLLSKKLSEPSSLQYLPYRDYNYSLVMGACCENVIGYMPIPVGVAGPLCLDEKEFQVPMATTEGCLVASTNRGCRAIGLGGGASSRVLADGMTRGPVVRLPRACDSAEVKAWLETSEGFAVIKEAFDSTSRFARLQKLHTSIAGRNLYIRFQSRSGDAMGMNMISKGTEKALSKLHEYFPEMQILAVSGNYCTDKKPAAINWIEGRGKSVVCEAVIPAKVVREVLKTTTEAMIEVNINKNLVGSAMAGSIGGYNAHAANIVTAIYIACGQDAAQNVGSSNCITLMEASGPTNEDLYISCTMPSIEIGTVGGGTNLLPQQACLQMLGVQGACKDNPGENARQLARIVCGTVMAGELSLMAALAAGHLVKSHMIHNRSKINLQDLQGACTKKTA
Experimental: The assay buffer, NADPH, substrate solution, and HMGCoAR were provided in the HMGCoAR Assay Kit (Sigma). The experiments were carried out as previously described. See Supplementary Materials for further details.
In vitro experiments were performed in order to confirm the in silico study according to which T9 was a potential inhibitor of the HMGCoAR activity. Peptide concentrations ranging from 10^−5 to 10^−3 M were tested.
Brief description of material and methods
Dulbecco’s modified Eagle’s medium (DMEM), stable L-glutamine, fetal bovine serum (FBS), phosphate buffered saline (PBS), penicillin/streptomycin, chemiluminescent reagent, and 96-well plates were purchased from Euroclone (Milan, Italy). […]
The assay buffer, NADPH, substrate solution, and HMGCoAR were provided in the HMGCoAR Assay Kit (Sigma). […] The absorbance at time 0 and 10 min were recorded. The HMGCoAR-dependent oxidation of NADPH and the inhibition properties of lupin peptides were measured by the absorbance reduction at 340 nm read by a microplate reader […]
Transfected HepG2 cells (1.5 × 10^5 cells/well) were treated with 100 μM T9 for 24 h. […] After centrifugation at 16,060 g for 15 min at 4 °C, the supernatant was recovered and total proteins were quantified by the Bradford method. […]

intestinal peptidases = details: ref [13]; cited from earlier work
Source text: (§1) GQEQSHQDEGVIVR (T9) is a peptide, deriving from the hydrolysis of β-conglutin with trypsin, showing a pI of 4.3, a hydrophobicity value of 25.97 Kcal mol^−1, and a net charge of −2 at pH 7.0. Its 14-aminoacids sequence comprises a polar negatively charged N-terminal, containing a glutamate residue, and a nonpolar positively charged C-terminal, containing an arginine residue. […] Two previous in silico studies have predicted the potential ...

[1] = test system: human intestinal Caco-2 cells; details: human intestinal Caco-2 cells / enterocytes; ref [13]; cited from earlier work
Source text: as §1, with “A previous study has shown that T9 impairs the protein–protein interaction between mutant D374Y Proprotein Convertase Subtilisin/Kexin 9 (PCSK9^D374Y) and the low-density lipoprotein receptor (LDLR), thus exerting a hypocholesterolemic effect. […] The present ... || GQEQSHQDEGVIVR” for “GQEQSHQDEGVIVR”

SMILES: CC[C@H](C)[C@H](NC(=O)[C@@H](NC(=O)CNC(=O)[C@H](CCC(=O)O)NC(=O)[C@H](CC(=O)O)NC(=O)[C@H](CCC(N)=O)NC(=O)[C@H](Cc1cnc[nH]1)NC(=O)[C@H](CO)NC(=O)[C@H](CCC(N)=O)NC(=O)[C@H](CCC(=O)O)NC(=O)[C@H](CCC(N)=O)NC(=O)CN)C(C)C)C(=O)N[C@H](C(=O)N[C@@H](CCCNC(=N)N)C(=O)O)C(C)C [T9]
- IC50 (HMGCoAR): 99.5 ± 0.56 µM
- stability to metabolic degradation operated by intestinal peptidases (in words) (intestinal peptidases): stable to the metabolic degradation operated by intestinal peptidases
- intestinal absorption (in words) [1]: absorbed in human intestinal Caco-2 cells; also recorded: absorbed by enterocytes
